# Measurements from patent US20250179126A1, “A NOVEL PEPTIDE FROM A PHOTOSYNTHETIC BACERIUM DIRECTLY TARGETS MITOCHONDRIA TO TRIGGER APOPTOSIS IN ADVANCED PROSTATE CANCER CELLS” (priority 2022, published 2025).
# Entries after “also recorded” stand apart in the source; their conditions may differ.
# Tests used:
# [1] = molecular target: T1, mitochondrial ATP synthase gamma subunit (ATP5C) (Homo sapiens, UniProt P36542); test: Pull-down assay with biotin-labeled peptides and protein identification; type: binding; conditions: mitochondrial fraction of PC3 cells, biotin-labeled peptide, 16 hr at 4° C.
# T1 construct: endogenous in cells; host or cells: PC3 human prostate cancer cells, mitochondrial fraction (detergent extract)
# T1 sequence (P36542 26-298): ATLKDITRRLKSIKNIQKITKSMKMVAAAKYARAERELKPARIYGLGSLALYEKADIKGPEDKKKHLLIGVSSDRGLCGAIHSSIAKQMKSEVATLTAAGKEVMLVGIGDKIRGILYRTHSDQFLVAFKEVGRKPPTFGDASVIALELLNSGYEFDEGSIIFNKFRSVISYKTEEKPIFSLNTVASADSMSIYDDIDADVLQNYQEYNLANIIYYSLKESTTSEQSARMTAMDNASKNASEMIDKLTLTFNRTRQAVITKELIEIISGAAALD
# From the text: 8A, TEM image of PC3 cells. Representative TEM micrograph of aurB-treated cells depicting the intraritochondrial localization of aurB-GNRs (arrowheads) and mitochondria](Mt) swelling. Scale bar: 600 nm. Mt: mitochondria. […] Coomassie-stained SDS-PAGE gels are shown (8B). The protein band at ˜35 kDa (arrowhead) was identified as ATP5C using mass spectrometry analysis. The identified fragments are indicated in green underlined sequence (SEQ ID NO: 4)(8C).
# Pull-down assay and protein identification: PC3 cells were washed twice with PBS, and the mitochondrial fraction was prepared with a Qproteome mitochondria isolation kit (Qiagen). […] The peptides were then preincubated with streptavidin-agarose beads for 4 hr. After washing, the beads were boiled, and the released proteins were subjected to SDS-PAGE analysis. A protein band of ˜35 kDa was subjected to microcapillary LC/MS/MS for protein identification (Harvard Medical School, Taplin Mass Spectrometry Facility). For IB, proteins were transferred to nitrocellulose membranes. After blocking with 5% BSA in TBST, the membranes were incubated with anti-ATP5C antibody at 1:25,000 in 5% BSA/TBST (Abcam) for 16 hr at 4° C. The secondary antibody was applied (anti-goat IgG-HRP; Santa Cruz Biotechnology). The signal was detected using enhanced chemiluminescence (ECL).
# [2] = tested on: normal prostate CRL11611 cells; test: Annexin-V apoptosis assay by flow cytometry, normal prostate CRL11611; type: cell-based, human; conditions: normal CRL11611, 48 hr; Ptxl 1 nM, p28 50 μM, aurA/aurB 0.5-50 μM
# Experimental: (§1) FIG. 7A-7D: Determination of apoptotic cell death. Prostate cancer cell lines (7A: LNCaP, 7B: DU145 and 7C: PC3) and normal prostate CRL11611 cells (7D) were exposed to the indicated agents for 48 hr and stained using apoptosis assay kits according to the manufacturer's instructions. The samples were analyzed by flow cytometry. Mean±SE (N=3).
# (§2) After 48 hr, annexin-V apoptosis assays (Thermo Fisher Scientific) were conducted to detect apoptotic cells. At least 10,000 cells in each case were analyzed by FACS (RRC, UIC).
# PC3 cells [3] = test: Annexin-V apoptosis assay by flow cytometry, PC3; type: cell-based, human; conditions: PC3, 48 hr; Ptxl 1 nM, p28 50 μM, aurA/aurB 0.5-50 μM
# Experimental: as §1, §2
# [4] = tested on: LNCaP prostate cancer cells; test: MTT cell viability assay, LNCaP prostate cancer cells; type: cell-based, human
# Experimental: Cell lines and culture: Human cancer and noncancer (immortalized and nonimmortalized) cell lines were obtained from the American Type Culture Collection [prostate cancer (PC3, DU145 and LNCaP), normal prostate (CRL11611), breast cancer (MCF-7), ovarian cancer (SK-OV3 adenocarcinoma), lung cancer (A549)]. MDD2 breast cancer cells (p53 dominant-negative) were provided courtesy of Dr Andrei V. Gudkov, Roswell Park Cancer Institute. 20 All cell lines were cultured in MEM-E (Invitrogen) supplemented with 10% heat-inactivated fetal bovine serum (Atlanta Biological, Inc.), 100 units/mL penicillin, and 100 μg/mL streptomycin at 37° C. in 5% CO2.
# PC3 cells [5] = test: JC-1 mitochondrial membrane potential assay; type: cell-based, human
# Experimental: Cells were stained by using JC-1 Mitochondrial Membrane Potential Assay Kits according to the manufacturer's instructions to measure mitochondrial membrane potential, and fluorescence was measured by flow cytometry. 9B, Caspase-3 is involved in aurB-induced apoptosis. […] The inhibitor was used at the indicated concentrations. Mean±SE (N=3).
# JC-1 dye (Invitrogen) was used to determine mitochondrial membrane potential. […] After washing with PBS, trypsinized PC3 cells were incubated with JC-1 dye and analyzed by FACS.
substance,measurement,setting,value
LVN GGD DVA AAV NTA AQN NAD ALF VPPP (LVNGGDDVAAAVNTAAQNNADALFVPPP) [aurB],"binding to ATP5C (pull-down of ~35 kDa protein, IB)",[1],physically bound to ATP5C; also recorded: pulled down an endogenous protein
same,apoptotic cell death,[2],less extent
same,apoptotic cell death,PC3 cells [3],induced significant dose-dependent apoptosis
same,cytotoxic effect (MTT cell viability),"[4]; LNCaP (p53 wild-type, AR+), 24-72 hr, paclitaxel 1 nM",significantly induced dose-dependent cytotoxic effects; also recorded: more sensitive than the normal prostate cell line
same,inhibition rate,"[4]; LNCaP, 100 μM for 72 hr",~50%
same,change of mitochondrial membrane potential (JC-1),"PC3 cells [5]; PC3, 1 μM",17%
same,change of mitochondrial membrane potential (JC-1),"PC3 cells [5]; PC3, 10 μM",21%
same,change of mitochondrial membrane potential (JC-1),"PC3 cells [5]; PC3, 100 μM",32%
same,effect on mitochondrial membrane potential (JC-1),"PC3 cells [5]; PC3, 1, 10 and 100 μM",dose-dependently increased
